Row | Compound | melting point [°C]
1 | C=CCN(C)CCNc1ccnc2cc(Cl)ccc12 | 91 to 93
2 | O=c1[nH]c2cc([N+](=O)[O-])ccc2c(=O)n1N1CC=C(c2ccc(Cl)cc2)CC1 | 210 to 212
3 | COc1cc(-c2cnc3[nH]cc(C(=O)C4(C)CCC(O)CC4)c3n2)cc(OC)c1OC (stereo not drawn) | 242 to 244
4 | CCOCc1nc2c(N)nc3cc(CCC(=O)N4CCOCC4)ccc3c2n1CC(C)(C)O | 118 to 119
5 | O=C(Nc1nccs1)c1nc(-c2ccc(CN3CCOCC3)cc2)[nH]c1-c1ccc(Cl)cc1 | 253 to 255
6 | CC(C)COc1ccc(F)cc1OCCOS(C)(=O)=O | 53 to 55
7 | N=C(N)c1ccc(C(=O)N2CCCCC2C(=O)N2CCC(OCC(=O)O)CC2)cc1 (stereo not drawn) | 233 to 234
8 | COc1ccc2c(Cc3c(Cl)cncc3Cl)nn3nnnc3c2c1 | 275 to 276
9 | CCOc1c(C)cc([N+](=O)[O-])cc1C | 56
10 | CCCc1nc2c(N)nc3cc(OCCCNS(C)(=O)=O)ccc3c2n1CC(C)C | 166 to 168
11 | CCc1ncc(CCCOc2c(C)cc(-c3noc(C(F)F)n3)cc2C)s1 | 68 to 70
12 | Nc1nc2cc3c(cc2[nH]1)OCO3 | 230 to 243
13 | Cc1c(C(N)=O)nc2c(=O)[nH]c3cc(C(F)(F)F)ccc3n12 | > 250
14 | Nc1ccc(Sc2cnc3cc(Cl)ccc3n2)cc1 | 144 to 147
15 | O=C1CCCC(CN2CC=C(c3ccccc3)CC2)C1 (stereo not drawn) | 56 to 59
16 | O=C(NCCO[N+](=O)[O-])c1cscn1 | 105 to 108
17 | O=c1cc(Cl)c2cc(OC(F)(F)F)ccc2o1 | 85 to 87
18 | CCCCCCCCCCCCCCN(C)c1ccc([N+](=O)[O-])cc1C(=O)O | 100 to 101

Row | Compound | melting point [°C]
19 | c1cc2cc3cnccc3cc2cn1 | 174
20 | O=C1NC(=O)C2(c3ccc4ccc(Cl)nc4n3)C=CC=CC12 (stereo not drawn) | 268
21 | CC12CCC3C(CCC4CC5OC5CC43C)C1CC(N1CCCC1)C2=O (stereo not drawn) | 146
22 | COc1cc(N2CCOCC2)ccc1Nc1nc(Nc2cc(F)cc3c2OCCNC3=O)ncc1Cl | > 230
23 | CC(=O)OC1CCC2(C)C3CCC4(C)C(C(C)=O)CCC4C3CC(Cl)C2(Cl)C1 (stereo not drawn) | 187
24 | Cc1nc2cc(C(c3cccc(Cl)c3)n3ccnc3)ccc2[nH]1 (stereo not drawn) | 117
25 | Nc1ccc(N2CCN(CCCC3CCCC3)C2=O)cc1 | 97 to 99
26 | N#Cc1ccc(Oc2cc(F)cc(F)c2)c([N+](=O)[O-])c1 | 132 to 136
27 | COc1ccc(-c2cn(C)cc(-c3cccc(C(F)(F)F)c3)c2=O)cc1 | 160 to 162
28 | COc1cc(N2CCCN(C3CCN(C)CC3)CC2)ccc1Nc1ncc2ccc(-c3ccccc3OC)n2n1 | 71 to 80
29 | NS(=O)(=O)c1ccc(-c2noc(-c3cnn4c(C5CC5)cc(-c5ccc(C(F)(F)F)cc5)nc34)n2)cc1 | 313
30 | C=CCc1cc2c(C)c(C#N)c(=O)oc2c(C)c1O | 163 to 164
31 | COc1cc2c(cc1Nc1ncc(Cl)c(Nc3ccc(N(C)C)cc3OC)n1)CCN(CCN1CCOCC1)CC2 | 115
32 | O=C1CSCC(c2ccc(F)cc2)N1 (stereo not drawn) | 111 to 112
33 | CCN1CCCC1CNC(=O)c1sc(C=O)c(C)c1OC (stereo not drawn) | 122 to 123
34 | CC(C)NC(=O)NCCc1c2c3c(nc(N)c2nn1C)CCCC3 | 237 to 238
35 | Oc1ccc(-n2nc3c(c2Cl)CCCC3)c(F)c1 | 214 to 216

Second part, the compound after the results:

Row | melting point [°C] | Compound
36 | 144 to 148 | CN1CCN(CCCNc2ncc3cc(-c4c(Cl)cccc4Cl)c(NC(=O)NCc4ccccc4)nc3n2)CC1
37 | 177 | CCCC(=O)Cc1ccc(C(=O)Nc2ccc3cc(CN4CCN(C)CC4)cnc3c2C)cc1
38 | 231 to 232 | CCOC(=O)c1ncc2[nH]c3cccc(Oc4ccc([N+](=O)[O-])cc4)c3c2c1COC
39 | 116 to 118 | COc1ccc(C(=O)Oc2cc(OCCO/N=C/c3ccc(C(C)(C)C)cc3)ccc2C(=O)O)cc1
40 | 162 to 166 | COC(=O)c1cc(NC(=O)OC(C)(C)C)c(NC(=O)CC(=O)c2cccc(C#N)c2)cc1I
41 | 187 to 191 | CCCCC(=N)NC(=O)Nc1ccc([N+](=O)[O-])cc1
42 | 213 to 214 | NC(=O)CNC(=O)c1sc(Nc2ccccc2)c2c1CCc1cnoc1-2
43 | 126 to 128 | COC(=O)c1ccc(Cl)cc1NS(C)(=O)=O
44 | 39 to 42 | CON(C)C(=O)c1ccoc1
45 | 126 | Cc1cccc(O)c1S(N)(=O)=O
46 | 156 to 157 | CCOc1cccc(CC(=O)O)c1OCCCc1cn(-c2ccc(C(F)(F)F)cn2)nc1C1CCCCC1
47 | 212 to 213 | Cc1ccc2[nH]c(=O)c(-c3ccccc3)cc2c1
48 | 182 to 184 | COc1ccc(Oc2c(N)cc(C(=O)O)cc2S)cc1
49 | 159 to 162 | CC(=O)c1ccc2c(c1)OCC(C(=O)O)O2 (stereo not drawn)
50 | 93.5 to 94 | COC(=O)NNC(=S)Cc1ccccc1
51 | 94 to 95 | CCOC(=O)[C@@H](CC(=O)c1ccc2ccccc2c1)NC(C)=O
52 | 98 to 99.5 | O=C1c2ccccc2C(=O)N1CCn1nnc(C(F)(F)F)n1
53 | 180 to 182 | CCn1c2ccccc2c2cc(C(C#N)=C(C#N)c3ccc(C(F)(F)F)cc3)ccc21
54 | 128 to 129 | O=C(CC(=O)c1cccn1Cc1ccc(F)cc1)c1ccncn1

Row | melting point [°C] | Compound
55 | 170 to 172 | C1=C(OCc2ccccc2)CCN(Cc2nc3ccccc3[nH]2)C1
56 | 160 | O=C(Nc1cccc(Cl)c1)O[C@H]1COC(c2ccccc2)=N[C@@H]1c1ccccc1 (racemic)
57 | 219 to 221 | CC(=S)NCC1CN(c2ccc3c(c2)CC(C(C)(C)C)N3C=O)C(=O)O1 (stereo not drawn)
58 | 258 to 260 | CC(=O)Nc1ccc(S(=O)(=O)Nc2cccc(N(C)C(C)=O)c2)cc1
59 | 136 to 137 | CCOc1ccc(OCc2cccc(OCc3nc(-c4ccccc4)oc3C)c2)cc1CCC(=O)O
60 | 108 to 110 | COc1ccc(C(C#N)Sc2ccccn2)cc1OC (stereo not drawn)
61 | 128 | CCCCC(CC)COc1cc(CO)c(-n2c3ccccc3c3ccccc32)cc1CO (stereo not drawn)
62 | 106 to 108 | CN(C)c1nc2c(c(N3CCN(Cc4ccccc4)CC3)n1)SCCC2
63 | 192 to 193 | CC(C)(C)OC(=O)NCc1cccc(C(=O)N[C@H]2C[C@H](C(=O)O)Nc3cc(Cl)cc(Cl)c32)c1 (relative stereo)
64 | 120 to 125 | CCOc1c(Nc2ccncc2)c(=O)c1=O
65 | 144 to 147 | CCOC(=O)OC12Oc3cc(C(C)C)ccc3C1(O)C(=O)c1ccccc12 (stereo not drawn)
66 | 218 to 220 | NC(=O)Cc1nc2ccnc(-c3cccc(C(F)(F)F)c3)n2n1
67 | 151 to 153 | COc1cccc(CNc2n[nH]c(N)c2C#N)c1
68 | 36 to 39.5 | COC(=O)N=C(N)OC
69 | 130 to 132 | COC(=O)c1ccc(CN2CCOc3ccc([N+](=O)[O-])cc32)c(OC)c1
70 | 133 | COc1ccc2c(SC(C)(C)C)c(C(C)C(C)(C)C(=O)O)[nH]c2c1 (stereo not drawn)
71 | 79 to 80 | CCOc1ccccc1CNC(=O)c1ccc2cnccc2n1
72 | 147 to 148 | O=C(CCc1ccccc1)N[C@H](Cc1ccc(C(F)(F)F)cc1)[C@@H](O)c1ccccc1 (racemic)
73 | 134 to 136 | O=Cc1cccc2c(Br)c3ccccc3cc12

— a melting point compilation (Tetko et al.; mined from patent text by program, amines drawn as free bases though some values may be those of a salt)
